Consider six compounds from patent US20230416329A1, “A PEPTIDE WITH DISULFIDE BONDS AND INHIBITORY ACTIVITY AGAINST SERINE PROTEASES, DERIVED HYBRID PEPTIDES THEREOF, AND USES THEREOF” (INSTITUTE OF MATERIA MEDICA , CHINESE ACADEMY OF MEDICAL …, priority 2020, published 2023).

Read-outs that look alike come from different tables or passages of the source. Bridge positions count the residues as written; N and C are the ends. Square brackets hold non-standard residues; d marks the D form. Peptide text beside a SMILES is read from it. Hyp = O=C(O)[C@@H]1C[C@@H](O)CN1

One series deals with chymotrypsin (Bos taurus, UniProt P00766). The experiment in a line: in vitro. As to the method: FIG. 18. […] At different time point, 25 μL aliquots was taken out, and 10% (v/v) TFA was added to terminate the reaction.
Mix by centrifugation at 8000 rpm for 30 seconds.
Arrange a certain volume of 0.05 μg/μL chymotrypsin solution in another sterile EP. Incubate the EP tubes containing peptides and enzymes at 37° C. for 5 min, and add 3 μL of […] solution to each EP tube containing peptides and mix well. Start timing and extract 25 μL of reaction solution at 1.5, 3.0, 4.5, 6.0 and 9.0 min later, respectively. Add 3.75 μL of 10% TFA to terminate the reaction and mix well by centrifugation at 8000 rpm for 30 seconds.
Arrange a certain volume of 0.05 μg/μL chymotrypsin solution in another sterile EP. Incubate the EP tubes containing peptides and enzymes at 37° C. for 5 min, and then add 4.5 μL of chymotrypsin solution to each EP tube containing peptides and mix well. Start timing and extract 25 μL of reaction solution at 1.5, 3.0, 4.5, 6.0, 9.0, 15.0, 30.0, and 60.0 min later, respectively. Add 3.75 μL of 10% TFA to terminate the reaction and mix well by centrifugation at 8000 rpm for 30 seconds.
Referring to the experimental method in Example 5, in vitro stability of salmon Calcitonin analogs with oral administration activity to the enzymatic hydrolysis by trypsin, chymotrypsin and elastase were performed.
Referring to the experimental method in Example 5, in vitro stability of IL-17A inhibitory peptides towards the enzymatic hydrolysis by trypsin, chymotrypsin and elastase were performed.

The target in the next series is T1, bovine trypsin (Bos taurus, UniProt P00760).
T1 sequence (P00760 24-246): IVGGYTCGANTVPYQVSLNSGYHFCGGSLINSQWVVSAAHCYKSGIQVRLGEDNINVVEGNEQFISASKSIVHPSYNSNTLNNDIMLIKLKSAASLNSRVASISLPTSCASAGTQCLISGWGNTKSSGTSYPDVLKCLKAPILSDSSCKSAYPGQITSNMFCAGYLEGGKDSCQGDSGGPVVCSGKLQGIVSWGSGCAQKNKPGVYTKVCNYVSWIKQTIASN
Briefly: Trypsin inhibitory activity of peptides (BApNA hydrolysis, OD405; IC50, Ki, residual activity). The format is biochemical. Particulars: for IC50: trypsin 50 nM, BApNA 1.22 mM, read-out: IC50. The procedure, abridged:
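Trypsin (50 nM final) preincubated with peptides at 37 °C in 50 mM Tris-HCl pH 7.8, 20 mM CaCl2; BApNA added (1.22 mM final), 260 min at 37 °C, then OD405 read. Residual activity from enzyme-only and substrate-only controls; IC50 fitted and converted to Ki via Ki=IC50/(1+S/Km), Km measured separately for BApNA.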

The mark [1] stands for this setting: isolated enzyme chymotrypsin, pH 7.8, Remaining peak area (%)/chymotrypsin.
[2] abbreviates: Ki=IC50/(1+S/Km), Km 0.33 mM, read-out: Ki.

What is called amount remaining is the share of the starting amount still present when the sample was taken. Low values mean a greater loss, high ones greater stability. Take `CC[C@H](C)[C@H](N)C(=O)N[C@@H](Cc1c[nH]cn1)C(=O)N[C@H](C(=O)N[C@H](C(=O)N[C@H](C(=O)N1CCC[C@H]1C(=O)N[C@@H](C)C(=O)N[C@@H](CC(=O)O)C(=O)N[C@@H](CC(C)C)C(=O)N[C@@H](Cc1c[nH]c2ccccc12)C(=O)N[C@@H](CC(=O)O)C(=O)N[C@@H](Cc1c[nH]c2ccccc12)C(=O)N[C@H](C(=O)N[C@@H](CC(N)=O)C(=O)NCC(=O)N[C@@H](Cc1ccccc1)C(=O)N[C@H]1CSSC[C@@H](C(=O)N[C@@H](Cc2ccc(O)cc2)C(=O)NCC(=O)O)NC(=O)[C@H](CCC(N)=O)NC(=O)[C@@H]2CCCN2C(=O)[C@@H]2CCCN2C(=O)[C@H]([C@@H](C)CC)NC(=O)[C@H](CO)NC(=O)[C@H](Cc2ccc(O)cc2)NC(=O)[C@H]([C@@H](C)O)NC1=O)[C@@H](C)CC)[C@@H](C)CC)[C@@H](C)O)C(C)C` [17A-CH] (H-IHVTIPADLWDWINGFCTYSIPPQCYG-OH; disulfide 17-25): the “stability towards chymotrypsin hydrolysis (in words)” value on chymotrypsin is “tolerated to the degradation of corresponding serine proteases”. Moreover, the “Remaining peak area (%)/chymotrypsin” value on chymotrypsin (0 h) is on record as 100.0 ± 0.0%. On chymotrypsin (setting [1]), this compound gave a share remaining at 0.025 h, 60 μM of 41.6 ± 3%; a fraction remaining at 0.05 h, 60 μM of 41.7 ± 6%; a fraction remaining at 0.075 h, 60 μM of 38.8 ± 3.4%; a share remaining at 0.1 h, 60 μM of 45.1 ± 8.5%. At chymotrypsin (setting [1]), the share remaining at 0.15 h, 60 μM amounted to 44.3 ± 7.6%; the amount remaining at 0.25 h, 60 μM turned out to be 35.2 ± 3.8%; the share remaining at 0.5 h, 60 μM was 30.5 ± 2.5%; the fraction remaining at 1 h, 60 μM was determined as 35.7 ± 3%.
As for `CC[C@H](C)[C@@H]1NC(=O)[C@H](CO)NC(=O)[C@H](CCCNC(=N)N)NC(=O)[C@H]([C@@H](C)O)NC(=O)[C@H](C)NC(=O)[C@H](CCCNC(=N)N)NC(=O)CNC(=O)[C@@H](N)CSSC[C@@H](C(=O)N[C@@H](Cc2ccccc2)C(=O)O)NC(=O)[C@H](C)NC(=O)[C@@H]2CCCN2C(=O)[C@@H]2CCCN2C1=O` [BT15] (H-CGRATRSIPPACF-OH; disulfide 1-12; N-terminus and C-terminus assumed), the “inhibitory activity against trypsin (in words)” value (“inhibitory activity” below) against bovine trypsin was “significant impact on their anti-trypsisn activities”.
By IC50 is commonly meant the point on the concentration scale where inhibition reaches its midpoint. Consider `CC[C@H](C)[C@@H]1NC(=O)[C@@H]2CCCN2C(=O)[C@@H]2CCCN2C(=O)[C@H]([C@@H](C)CC)NC(=O)[C@H](CO)NC(=O)[C@H](CCCCN)NC(=O)[C@H]([C@@H](C)O)NC(=O)[C@H](Cc2c[nH]c3ccccc23)NC(=O)[C@H](CCCNC(=N)N)NC(=O)CNC(=O)[C@@H](N)CSSC[C@@H](C(=O)O)NC(=O)[C@H](Cc2ccccc2)NC1=O` [BT40] (H-CGRWTKSIPPIFC-OH; disulfide 1-13 (inferred); N-terminus and C-terminus assumed), for which, at bovine trypsin, the IC50 is > 50000 nM.
What is called Ki is a dissociation constant, usually derived from enzyme kinetics or from competition with a known ligand. On to `CC[C@H](C)[C@@H]1NC(=O)[C@H](CCCNC(=N)N)NC(=O)CNC(=O)[C@@H](N)CSSC[C@@H](C(=O)N[C@@H](Cc2ccccc2)C(=O)O)NC(=O)[C@H]([C@@H](C)CC)NC(=O)[C@@H]2CCCN2C(=O)[C@@H]2CCCN2C(=O)[C@H]([C@@H](C)CC)NC(=O)[C@H](CO)NC(=O)[C@H](CCCCN)NC(=O)[C@H]([C@@H](C)O)NC1=O` [BT49] (H-CGRITKSIPPICF-OH; disulfide 1-12; C-terminus assumed), for which the “inhibitory activity” value at bovine trypsin is “excellent trypsin inhibitory activities”. The Ki at bovine trypsin (setting [2]) is 110 nM.
For the compound `CC[C@H](C)[C@@H]1NC(=O)[C@@H]2CCCN2C(=O)[C@@H]2CCCN2C(=O)[C@H]([C@@H](C)CC)NC(=O)[C@H](CO)NC(=O)[C@H](CCCCN)NC(=O)[C@H]([C@@H](C)O)NC(=O)[C@H](C)NC(=O)[C@H](CCCCN)NC(=O)[C@H](C)NC(=O)CNC(=O)[C@@H](N)CSSC[C@@H](C(=O)N[C@@H](Cc2ccccc2)C(=O)N2CCC[C@H]2C(=O)N[C@@H](CC(=O)O)C(=O)O)NC1=O` [BT3] (H-CGAKATKSIPPICFPD-OH; disulfide 1-13; N-terminus and C-terminus assumed), the Residual trypsin activity at bovine trypsin (peptide 0.098 μM) turned out to be 95.7 ± 3.6%; at bovine trypsin (peptide 0.1463 μM) it was 86.8 ± 2.5%; at bovine trypsin (peptide 0.293 μM), 85.6 ± 1.3%; at bovine trypsin (peptide 0.488 μM), 67.2 ± 4.8%; at bovine trypsin (peptide 0.98 μM) it was 23.3 ± 5.3%; at bovine trypsin (peptide 4.88 μM), 1.8 ± 0.9%. For the same compound, the results for the Residual trypsin activity on bovine trypsin (peptide 9.76 μM) and on bovine trypsin (peptide 19.51 μM) were 0.9 ± 0.4% and 0.1 ± 0.0%, respectively. In addition, the inhibitory constant (Ki) at bovine trypsin (read-out: inhibition constant (Ki) towards trypsin) was 140 nM.
As to `CC[C@H](C)[C@@H]1NC(=O)[C@@H]2CCCN2C(=O)[C@@H]2C[C@@H](O)CN2C(=O)[C@H]([C@@H](C)CC)NC(=O)[C@H](CO)NC(=O)[C@H](CCCCN)NC(=O)[C@H]([C@@H](C)O)NC(=O)[C@H](C)NC(=O)[C@H](CCCNC(=N)N)NC(=O)[C@H](C)NC(=O)[C@@H](N)CSSC[C@@H](C(=O)N[C@@H](Cc2ccccc2)C(=O)O)NC1=O` [BT69] (H-CARATKSI[Hyp]PICF-OH; disulfide 1-12; C-terminus assumed), at bovine trypsin, the “inhibitory activity” value was “excellent trypsin inhibitory activities” and the IC50 is 60 nM. Moreover, the Ki on bovine trypsin (setting [2]) was determined as 10 nM.
